Among the test systems are SF-268; DU-145; CAKI-1; 786-0; BT-549; T47D; MCF7; MDA-N; UACC-257; HOP-62; Malme-3M; OVCAR-3; SNB-75; TK-10; NCI-H460; MDA-MB-231; MOLT-4; OVCAR-5; NCI-H226; CCRF-CEM.
Holding throughout (experiment): inhibition of tumour cell growth, NCI panel, 48 h

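Tested at 5 concentrations; 48 h exposure; 96-well plates; endpoints linearly interpolated, else capped at highest concentration. GI50 marks 50% less growth.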 Activity calls are given as the source filed them. No stated cut-off is given here; in the data, active = GI50 up to about 1.1 µM and inactive = higher.

The values below come from ChEMBL document CHEMBL1201862, “PubChem BioAssay data set” (2004).

Regarding `CC/C(C)=C1\OC(=O)C(C)C(O)C(Cc2cccnc2)NC(=O)C(NC(=O)c2ncccc2O)C(C)OC1=O` (stereo not given), the GI50 in the assay with SF-268 is 58.3 µM (inactive); in the assay on DU-145, > 100 µM (inactive); in the assay on CAKI-1, > 100 µM (inactive); with 786-0, > 100 µM (inactive); in the assay on BT-549 it was > 100 µM (inactive); in the assay with T47D, > 100 µM (inactive). Besides, the GI50 in the assay with MCF7 is > 100 µM (inactive); in the assay with MDA-N, > 100 µM (inactive); in the assay with UACC-257 it was > 100 µM (inactive); in the assay on HOP-62 it was 51.1 µM (inactive); in the assay with Malme-3M, 39.5 µM (inactive); with OVCAR-3, > 100 µM (inactive). For the same compound, the GI50 in the assay with SNB-75 is 51.6 µM (inactive); in the assay with TK-10 it was > 100 µM (inactive); in the assay on NCI-H460, 63.1 µM (inactive); with MDA-MB-231, > 100 µM (inactive); in the assay with MOLT-4 it was 53.6 µM (inactive); in the assay with OVCAR-5, > 100 µM (inactive).

Turning to `CSc1ccc(C2C(Cl)C(=O)N2NC(=O)c2c(Cl)c(Cl)c(Cl)c(Cl)c2-c2nc3ccccc3[nH]2)cc1` (stereo not given), the GI50 with SF-268 is 19.1 µM (inactive); in the assay on DU-145, 15.8 µM (inactive); in the assay on CAKI-1 it was 14.9 µM (inactive); in the assay with 786-0 it was 18.4 µM (inactive); in the assay on BT-549, 17.2 µM (inactive); with T47D, 4.28 µM (inactive). The GI50 in the assay on MCF7 is 19.3 µM (inactive); in the assay with MDA-N, 21.5 µM (inactive); in the assay on UACC-257, 27.2 µM (inactive); with HOP-62, 79.3 µM (inactive); with NCI-H226, 16.1 µM (inactive); with Malme-3M it was 19 µM (inactive). For the same compound, the GI50 was 21.8 µM (inactive) in the assay on OVCAR-3; 15.2 µM (inactive) in the assay with SNB-75; 4.7 µM (inactive) in the assay with MOLT-4; 2.48 µM (inactive) in the assay on CCRF-CEM; 22.3 µM (inactive) in the assay on OVCAR-5.

With `[N-]=[N+]=NC1=C(c2ccccc2)C(=O)c2cccc3cccc1c23`, the GI50 was 22.3 µM (inactive) in the assay with SF-268; 28.9 µM (inactive) in the assay with DU-145; 33.6 µM (inactive) in the assay with CAKI-1; 15.2 µM (inactive) in the assay with 786-0; 8.17 µM (inactive) with BT-549; 5.12 µM (inactive) in the assay on T47D. Besides, the GI50 with MCF7 is 26.9 µM (inactive); in the assay on MDA-N, 12.2 µM (inactive); in the assay on UACC-257 it was 12.9 µM (inactive); in the assay with HOP-62 it was 15.2 µM (inactive); in the assay on Malme-3M, 18.8 µM (inactive); with OVCAR-3 it was 16.4 µM (inactive). Besides, the GI50 is 10.2 µM (inactive) with SNB-75; 23.2 µM (inactive) in the assay on TK-10; 5.79 µM (inactive) with NCI-H460; 2.55 µM (inactive) in the assay with MOLT-4; 4.85 µM (inactive) in the assay with CCRF-CEM; 48.5 µM (inactive) in the assay on OVCAR-5.

As to `C[C@]12c3c4cc(NC(=O)C(=O)NCc5ccc(-c6ccccn6)nc5)cc3Oc3cc(NC(=O)C(=O)NCc5ccc(-c6ccccn6)nc5)cc(c31)OC1C=C(NC(=O)C(=O)NCc3ccc(-c5ccccn5)nc3)C=C(O4)C12` (stereo not given in full), the GI50 is 16.8 µM (inactive) in the assay on SF-268; 18.8 µM (inactive) with DU-145; 21.2 µM (inactive) in the assay with CAKI-1; 18.1 µM (inactive) in the assay on 786-0; > 100 µM (inactive) with BT-549; 26.7 µM (inactive) with T47D. The GI50 with MCF7 is 33.7 µM (inactive); with MDA-N it was 34 µM (inactive); in the assay on UACC-257, 52.2 µM (inactive); in the assay with HOP-62 it was > 100 µM (inactive); in the assay on NCI-H226 it was 29.6 µM (inactive); in the assay with OVCAR-3, 35.6 µM (inactive). Also, the GI50 in the assay on SNB-75 is 16.4 µM (inactive); in the assay on TK-10, > 100 µM (inactive); in the assay on NCI-H460 it was 17.1 µM (inactive); in the assay with MDA-MB-231, 9.59 µM (inactive); in the assay with MOLT-4, 12.6 µM (inactive); in the assay with CCRF-CEM, 16.6 µM (inactive). Further, in the assay with OVCAR-5, the GI50 was > 100 µM (inactive).

Turning to `COc1c2ccoc2c(OC)c2oc(=O)ccc12` [ISOPIMPINELLIN], the GI50 in the assay on SF-268 is > 100 µM (inactive); with DU-145 it was > 100 µM (inactive); with CAKI-1, 50.5 µM (inactive); in the assay on 786-0 it was > 100 µM (inactive); with BT-549, > 100 µM (inactive); with T47D it was > 100 µM (inactive). The GI50 in the assay with MCF7 is > 100 µM (inactive); with MDA-N it was > 100 µM (inactive); in the assay with UACC-257 it was > 100 µM (inactive); with HOP-62 it was > 100 µM (inactive); in the assay on NCI-H226, 99.1 µM (inactive); with OVCAR-3, > 100 µM (inactive). Moreover, the GI50 in the assay with SNB-75 is 13.1 µM (inactive); in the assay with TK-10 it was > 100 µM (inactive); with NCI-H460, > 100 µM (inactive); with MDA-MB-231 it was > 100 µM (inactive); with MOLT-4, > 100 µM (inactive); in the assay on CCRF-CEM it was > 100 µM (inactive). Moreover, the GI50 in the assay with OVCAR-5 was > 100 µM (inactive).

For `COc1ccc(N[C@H](C[S+]([O-])c2ccc(C)cc2)c2ccc(F)cc2)cc1` (stereo not given in full), the GI50 is 24.7 µM (inactive) in the assay with SF-268; 96.6 µM (inactive) in the assay on DU-145; > 100 µM (inactive) with CAKI-1; 65.3 µM (inactive) in the assay with 786-0; > 100 µM (inactive) with BT-549; 10.3 µM (inactive) in the assay with T47D. For the same compound, the GI50 with MCF7 was 16.6 µM (inactive); in the assay with MDA-N it was 39.3 µM (inactive); in the assay on UACC-257, > 100 µM (inactive); in the assay on HOP-62, 33.7 µM (inactive); in the assay with Malme-3M it was 31.9 µM (inactive); in the assay with OVCAR-3, > 100 µM (inactive). Further, the GI50 in the assay with SNB-75 was 27.2 µM (inactive); with TK-10, > 100 µM (inactive); in the assay with NCI-H460, 91.2 µM (inactive); with MDA-MB-231, 40.5 µM (inactive); in the assay on MOLT-4 it was > 100 µM (inactive); in the assay with CCRF-CEM it was > 100 µM (inactive). Besides, in the assay on OVCAR-5, the GI50 is > 100 µM (inactive).

As to `Sc1nnc(-c2ccccc2Nc2ccccc2-c2nnc(S)n2-c2ccccc2)n1-c1ccccc1`, the GI50 was 69.7 µM (inactive) in the assay with SF-268; 56.6 µM (inactive) in the assay with DU-145; 31.3 µM (inactive) in the assay on CAKI-1; 45 µM (inactive) in the assay on 786-0; 28.1 µM (inactive) with BT-549; 23.9 µM (inactive) in the assay with T47D. Moreover, the GI50 in the assay with MCF7 was 37.2 µM (inactive); with MDA-N, 32.1 µM (inactive); in the assay with UACC-257 it was 44.3 µM (inactive); in the assay on HOP-62, 58.5 µM (inactive); in the assay on NCI-H226, 29.7 µM (inactive); with OVCAR-3, 56.6 µM (inactive). The GI50 is 37.5 µM (inactive) with SNB-75; 52.8 µM (inactive) in the assay with TK-10; 37.1 µM (inactive) in the assay on NCI-H460; 22.7 µM (inactive) with MDA-MB-231; 27.2 µM (inactive) in the assay on MOLT-4; 32.5 µM (inactive) in the assay on CCRF-CEM. Moreover, the GI50 in the assay with OVCAR-5 is 47.9 µM (inactive).

`COc1cc2c(cc1-c1coc3cc(OCC=C(C)C)ccc3c1=O)OCO2`: the GI50 is 43.4 µM (inactive) in the assay on SF-268; 34.9 µM (inactive) with DU-145; 19.8 µM (inactive) in the assay with CAKI-1; 19.9 µM (inactive) with 786-0; 16.8 µM (inactive) in the assay with BT-549; 17.7 µM (inactive) with T47D. For the same compound, the GI50 in the assay on MCF7 was 28.6 µM (inactive); in the assay with MDA-N it was 6.7 µM (inactive); with UACC-257 it was 33.3 µM (inactive); in the assay with HOP-62, 29.8 µM (inactive); in the assay on OVCAR-3 it was 61.2 µM (inactive); with SNB-75 it was 31 µM (inactive). In addition, the GI50 was 48.4 µM (inactive) in the assay on TK-10; 19.1 µM (inactive) in the assay on NCI-H460; 18.5 µM (inactive) with MDA-MB-231; 10.9 µM (inactive) in the assay with MOLT-4; > 10 µM (inactive) in the assay on CCRF-CEM; 55.6 µM (inactive) in the assay with OVCAR-5.

Consider `CC(=O)[C@]1(O)Cc2c(O)c3c(c(O)c2[C@@H](OC2CC(N)C(O)C(C)O2)C1)C(=O)c1c(OCc2ccccc2)cccc1C3=O` (stereo not given in full), for which the GI50 in the assay with SF-268 was 1.75 µM (inactive); in the assay with DU-145 it was 1.63 µM (inactive); in the assay with CAKI-1 it was 1.64 µM (inactive); with 786-0, 1.08 µM (active); in the assay on BT-549, 3.76 µM (inactive); with T47D, 2.32 µM (inactive). Moreover, the GI50 in the assay on MDA-N was 1.58 µM (inactive); in the assay with UACC-257, 4.06 µM (inactive); with HOP-62, 1.84 µM (inactive); in the assay on NCI-H226, 1.09 µM (active); in the assay on Malme-3M it was 3.33 µM (inactive); with OVCAR-3, 2.06 µM (inactive). The GI50 with SNB-75 is 3.48 µM (inactive); in the assay on TK-10, 9.75 µM (inactive); with NCI-H460, 0.14 µM (active); with MDA-MB-231, 1.92 µM (inactive); in the assay on MOLT-4 it was 0.0741 µM (active); in the assay with CCRF-CEM it was 0.202 µM (active). The GI50 with OVCAR-5 is 2.07 µM (inactive).

For `CC(C)(SCc1ccccc1)C(N)C(=O)O` (stereo not given), the GI50 with SF-268, in the assay with DU-145, in the assay on CAKI-1, in the assay with 786-0, in the assay with BT-549 and with T47D was > 100 µM (inactive) in each case. For the same compound, the GI50 in the assay with MDA-N, with UACC-257, in the assay on HOP-62, in the assay on NCI-H226, in the assay with Malme-3M and in the assay with OVCAR-3 was > 100 µM (inactive) each time. In addition, the GI50 in the assay with SNB-75, with TK-10, in the assay with NCI-H460, in the assay with MDA-MB-231, in the assay on MOLT-4 and in the assay on CCRF-CEM was > 100 µM (inactive) each time. Also, in the assay on OVCAR-5, the GI50 is > 100 µM (inactive).
